Structures are written as SMILES.

One test relates to NCI-H1355. The experiment in a line: relative viability (nuclei count vs DMSO), 5 days (fraction); higher = more cells survive. The note with it: first compound 2.53 µM. The gist of the method:
(§1)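 Values are medians from duplicate plates. Each reflects relative viability, defined as the nuclei count of treated wells over that of vehicle wells. Lung cancer cell lines in 1536-well plates were pin-tool dosed one day after seeding with one drug alone or with a fixed anchor-drug dose plus five library-drug doses (not always all listed) in √10 steps, then fixed, stained and imaged at 4× after 5 days.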
The compound `Nc1cccc2c1CN(C1CCC(=O)NC1=O)C2=O` (stereo not given) [Lenalidomide] + COc1cccc2cc(-c3nc([C@H]4CC[C@H](C(=O)O)CC4)n4ncnc(N)c34)[nH]c12 [OSI-027] (partner 0.5 µM) displayed a relative viability of 0.436.

Staying with this test, now noted: first compound 8 µM.
In turn, `Nc1cccc2c1CN(C1CCC(=O)NC1=O)C2=O` (stereo not given) [Lenalidomide] + N=C(N)NC(=N)NCCc1ccccc1 [Phenformin] (partner 250 µM) returned a relative viability of 0.399.
On the same count and under the same terms, the result for `Nc1cccc2c1CN(C1CCC(=O)NC1=O)C2=O` (stereo not given) [Lenalidomide] + Cc1cc(Nc2cc(N3CCN(C)CC3)nc(Sc3ccc(NC(=O)C4CC4)cc3)n2)n[nH]1 [Tozasertib] (partner 0.1 µM) reads 0.59; that for `Nc1cccc2c1CN(C1CCC(=O)NC1=O)C2=O` (stereo not given) [Lenalidomide] + CC(=O)c1c(C)c2cnc(Nc3ccc(N4CCNCC4)cn3)nc2n(C2CCCC2)c1=O [Palbociclib] (partner 0.5 µM), 0.286; that for `Nc1cccc2c1CN(C1CCC(=O)NC1=O)C2=O` (stereo not given) [Lenalidomide] + O=C(CCCCCCC(=O)Nc1ccccc1)NO [Vorinostat] (partner 1 µM), 0.495.
Same read-out and setting: the result for `Nc1cccc2c1CN(C1CCC(=O)NC1=O)C2=O` (stereo not given) [Lenalidomide] + COc1cccc2cc(-c3nc([C@H]4CC[C@H](C(=O)O)CC4)n4ncnc(N)c34)[nH]c12 [OSI-027] (partner 0.5 µM) reads 0.362.

In the next test the test system is NCI-H1666. Described as above. The settings on record: first compound 0.253 µM. The gist of the method:
as §1
Consider `Nc1cccc2c1CN(C1CCC(=O)NC1=O)C2=O` (stereo not given) [Lenalidomide] + N=C(N)NC(=N)NCCc1ccccc1 [Phenformin] (partner 250 µM), for which the relative viability is 0.331.
In the case of `Nc1cccc2c1CN(C1CCC(=O)NC1=O)C2=O` (stereo not given) [Lenalidomide] + Cc1cc(Nc2cc(N3CCN(C)CC3)nc(Sc3ccc(NC(=O)C4CC4)cc3)n2)n[nH]1 [Tozasertib] (partner 0.1 µM), the relative viability came to 0.585.
Take `Nc1cccc2c1CN(C1CCC(=O)NC1=O)C2=O` (stereo not given) [Lenalidomide] + CC(=O)c1c(C)c2cnc(Nc3ccc(N4CCNCC4)cn3)nc2n(C2CCCC2)c1=O [Palbociclib] (partner 0.5 µM): the relative viability amounted to 0.647.
Take `Nc1cccc2c1CN(C1CCC(=O)NC1=O)C2=O` (stereo not given) [Lenalidomide] + O=C(CCCCCCC(=O)Nc1ccccc1)NO [Vorinostat] (partner 1 µM): the relative viability was 1.05.
As for `Nc1cccc2c1CN(C1CCC(=O)NC1=O)C2=O` (stereo not given) [Lenalidomide] + COc1cccc2cc(-c3nc([C@H]4CC[C@H](C(=O)O)CC4)n4ncnc(N)c34)[nH]c12 [OSI-027] (partner 0.5 µM), the relative viability was found to be 0.822.

Staying with this test, now noted: first compound 0.8 µM.
With `Nc1cccc2c1CN(C1CCC(=O)NC1=O)C2=O` (stereo not given) [Lenalidomide] + CC(=O)c1c(C)c2cnc(Nc3ccc(N4CCNCC4)cn3)nc2n(C2CCCC2)c1=O [Palbociclib] (partner 0.5 µM), the relative viability came out at 0.584.
Same read-out and setting: the same measure for `Nc1cccc2c1CN(C1CCC(=O)NC1=O)C2=O` (stereo not given) [Lenalidomide] + O=C(CCCCCCC(=O)Nc1ccccc1)NO [Vorinostat] (partner 1 µM): 1.01.

The same test, now with this note: first compound 2.53 µM.
Compound `Nc1cccc2c1CN(C1CCC(=O)NC1=O)C2=O` (stereo not given) [Lenalidomide] + N=C(N)NC(=N)NCCc1ccccc1 [Phenformin] (partner 250 µM) came in with a relative viability of 0.635.
In the case of `Nc1cccc2c1CN(C1CCC(=O)NC1=O)C2=O` (stereo not given) [Lenalidomide] + Cc1cc(Nc2cc(N3CCN(C)CC3)nc(Sc3ccc(NC(=O)C4CC4)cc3)n2)n[nH]1 [Tozasertib] (partner 0.1 µM), the relative viability is 0.655.
In turn, `Nc1cccc2c1CN(C1CCC(=O)NC1=O)C2=O` (stereo not given) [Lenalidomide] + CC(=O)c1c(C)c2cnc(Nc3ccc(N4CCNCC4)cn3)nc2n(C2CCCC2)c1=O [Palbociclib] (partner 0.5 µM) came in with a relative viability of 0.646.
On the same count and under the same terms, the result for `Nc1cccc2c1CN(C1CCC(=O)NC1=O)C2=O` (stereo not given) [Lenalidomide] + O=C(CCCCCCC(=O)Nc1ccccc1)NO [Vorinostat] (partner 1 µM) reads 1.14.
In the case of `Nc1cccc2c1CN(C1CCC(=O)NC1=O)C2=O` (stereo not given) [Lenalidomide] + COc1cccc2cc(-c3nc([C@H]4CC[C@H](C(=O)O)CC4)n4ncnc(N)c34)[nH]c12 [OSI-027] (partner 0.5 µM), the relative viability is 0.927.

The same test, now with this note: first compound 8 µM.
In the case of `Nc1cccc2c1CN(C1CCC(=O)NC1=O)C2=O` (stereo not given) [Lenalidomide] + N=C(N)NC(=N)NCCc1ccccc1 [Phenformin] (partner 250 µM), the relative viability was 0.527.
As for `Nc1cccc2c1CN(C1CCC(=O)NC1=O)C2=O` (stereo not given) [Lenalidomide] + Cc1cc(Nc2cc(N3CCN(C)CC3)nc(Sc3ccc(NC(=O)C4CC4)cc3)n2)n[nH]1 [Tozasertib] (partner 0.1 µM), the relative viability was found to be 0.653.
In turn, `Nc1cccc2c1CN(C1CCC(=O)NC1=O)C2=O` (stereo not given) [Lenalidomide] + CC(=O)c1c(C)c2cnc(Nc3ccc(N4CCNCC4)cn3)nc2n(C2CCCC2)c1=O [Palbociclib] (partner 0.5 µM) yielded a relative viability of 0.642.
In turn, `Nc1cccc2c1CN(C1CCC(=O)NC1=O)C2=O` (stereo not given) [Lenalidomide] + O=C(CCCCCCC(=O)Nc1ccccc1)NO [Vorinostat] (partner 1 µM) registered a relative viability of 1.04.
On to `Nc1cccc2c1CN(C1CCC(=O)NC1=O)C2=O` (stereo not given) [Lenalidomide] + COc1cccc2cc(-c3nc([C@H]4CC[C@H](C(=O)O)CC4)n4ncnc(N)c34)[nH]c12 [OSI-027] (partner 0.5 µM), for which the relative viability stood at 0.894.

The subject of a further test is NCI-H1755. Described as above. The settings on record: first compound 0.253 µM. The method in brief:
as §1
`Nc1cccc2c1CN(C1CCC(=O)NC1=O)C2=O` (stereo not given) [Lenalidomide] + N=C(N)NC(=N)NCCc1ccccc1 [Phenformin] (partner 250 µM) came in with a relative viability of 0.627.
Compound `Nc1cccc2c1CN(C1CCC(=O)NC1=O)C2=O` (stereo not given) [Lenalidomide] + Cc1cc(Nc2cc(N3CCN(C)CC3)nc(Sc3ccc(NC(=O)C4CC4)cc3)n2)n[nH]1 [Tozasertib] (partner 0.1 µM) showed a relative viability of 0.638.
On the same count and under the same terms, the same measure for `Nc1cccc2c1CN(C1CCC(=O)NC1=O)C2=O` (stereo not given) [Lenalidomide] + CC(=O)c1c(C)c2cnc(Nc3ccc(N4CCNCC4)cn3)nc2n(C2CCCC2)c1=O [Palbociclib] (partner 0.5 µM): 0.451; for `Nc1cccc2c1CN(C1CCC(=O)NC1=O)C2=O` (stereo not given) [Lenalidomide] + O=C(CCCCCCC(=O)Nc1ccccc1)NO [Vorinostat] (partner 1 µM): 0.78.
The same measure, in the same setting: the result for `Nc1cccc2c1CN(C1CCC(=O)NC1=O)C2=O` (stereo not given) [Lenalidomide] + COc1cccc2cc(-c3nc([C@H]4CC[C@H](C(=O)O)CC4)n4ncnc(N)c34)[nH]c12 [OSI-027] (partner 0.5 µM) reads 0.757.

The test is the same for the next values; noted with them: first compound 0.8 µM.
For the compound `Nc1cccc2c1CN(C1CCC(=O)NC1=O)C2=O` (stereo not given) [Lenalidomide] + N=C(N)NC(=N)NCCc1ccccc1 [Phenformin] (partner 250 µM), the relative viability came to 0.615.
The compound `Nc1cccc2c1CN(C1CCC(=O)NC1=O)C2=O` (stereo not given) [Lenalidomide] + Cc1cc(Nc2cc(N3CCN(C)CC3)nc(Sc3ccc(NC(=O)C4CC4)cc3)n2)n[nH]1 [Tozasertib] (partner 0.1 µM) came in with a relative viability of 0.614.

Values taken from the supplement of paper PMC10307832.
